Experimental findings from patent publication EP4729061A1, “USE OF AKT INHIBITOR IN PREPARATION OF DRUG FOR PREVENTING OR TREATING BREAST CANCER” (Nanjing Chia Tai Tianqing Pharmaceutical Co., Ltd., priority 2023, dated 2024) are described below.

Experiment in all cases: Cell proliferation inhibition, CTG (CelltiterGlo) method, alone or combined with fulvestrant
Holding throughout (assay type): cell-based
A general note: ATP-based viability assays read luminescence as a measure of living cells.

The subject of one assay is BT-474 Cells. The note with it: compound alone; for IC50: Homo sapiens, BT-474, 168 h, 7 days; for Maximum Inhibition Rate on BT-474 Cells: maximum value fitted by GraphPad Prism 8. As for the experimental part:
(§1) a). BT-474 cells were cultured in Hybri-Care medium supplemented with 1% antibiotics and 10% FBS, and incubated in the condition of 37°C with 5% CO2; b). MCF-7 cells were cultured in EMEM medium supplemented with 1% antibiotics, 0.01 mg/mL insulin, and 10% FBS, and incubated in the condition of 37°C with 5% CO2; c). ZR-75-1 cells were cultured in RPMI-1640 medium supplemented with 1% antibiotics and 10% FBS, and incubated in the condition of 37°C with 5% CO2; d). T47D cells were cultured in RPMI-1640 medium supplemented with 1% antibiotics, 0.2 U/mL insulin, and 10% FBS, and incubated in the condition of 37°C with 5% CO2; e) CAMA-1 cells were cultured in EMEM medium supplemented with 1% antibiotics and 10% FBS, and incubated in the condition of 37°C with 5% CO2.
(§2) a). Cells were routinely cultured until reaching 80%-90% confluence and when the required cell number was reached, they were harvested; b). Resuspended in the corresponding medium, counted, and prepared into a cell suspension with appropriate density; c). The cell suspension was added to a 384-well plate at 40 µL per well. Table 1. Plating densities of different cell lines
(§3) d). The cells were cultured overnight in an incubator at 37°C with 5% CO2 .
(§4) a). The compound of Formula (A) was serially diluted 3-fold for 10 concentrations starting from a stock solution of 60 mM (using the monofumarate dihydrate of the compound of Formula (A), with the concentration calculated based on the free base of the compound of Formula (A); the compound of Formula (A) or salt thereof was prepared with reference to the preparation method disclosed in WO2022017448A1); b). Fulvestrant was diluted from 10 mM to 2 mM with DMSO, then serially diluted 3-fold for 10 concentrations; c). Fulvestrant was diluted from 2 mM to 0.2 mM with DMSO, then serially diluted 3-fold for 10 concentrations; d). Fulvestrant was diluted from 0.2 mM to 2 µM with DMSO; e). Fulvestrant was diluted from 2 µM to 0.8 µM with DMSO; f). Fulvestrant was diluted from 2 µM to 0.3 µM with DMSO; g) Fulvestrant was diluted from 0.8 µM to 0.08 µM with DMSO; h). The final concentration of DMSO was 0.1%; i). Cells supplemented with DMSO served as control wells for high reading values; j). Cell-free medium served as control wells for low reading values.
(§5) 24 Hours after BT474 and ZR-75-1 cells were plated, the compound was administered alone. For the compound of Formula (A): 20 nL of the compound prepared in step 2.3 a) + 20 nL of DMSO were added. For the compound fulvestrant: 20 nL of the compound prepared in step 2.3 b) + 20 nL of DMSO were added.
(§6) 24 Hours after BT474 and ZR-75-1 cells were plated, the compound of Formula (A) was administered in combination with fulvestrant: 20 nL of the compound prepared in step 2.3 a) + 20 nL of the compounds prepared in step 2.3 b) and d).
(§7) Fulvestrant for point-to-point combination (nM): 1000, 333, 111, 37, 12.3, 4.1, 1.37, 0.46, 0.15, 0.05, which are respectively combined with the gradient concentrations of the compound of Formula (A); Fulvestrant for single-concentration combination (nM): 1000, 1, which are respectively combined with the gradient concentrations of the compound of Formula (A).
(§8) The compound of Formula (A) (nM): 30000, 10000, 3333, 1111, 370, 123, 41.2, 13.7, 4.57, 1.52; • Fulvestrant for point-to-point combination (nM): 100, 33.3, 11.1, 3.7, 1.23, 0.41, 0.14, 0.046, 0.015, 0.005, which are respectively combined with the gradient concentrations of the compound of Formula (A); • Fulvestrant for single-concentration combination (nM): 1.2, 0.14, which are respectively combined with the gradient concentrations of the compound of Formula (A). d). The cell culture plates were centrifuged at 1000 rpm for 1 min, then placed in an incubator at 37°C with 5% CO2 for 7 days.
(§9) a). 40 µL of CTG reagent (CelltiterGlo kit) was added to each well, placed on a rapid shaker for 2 minutes of oscillation, centrifuged at 1000 rpm for 1 min, and then left at room temperature in the dark for 30 minutes; b). […]

A further assay has as its system ZR-75-1 Cells. The note with it: compound alone; for IC50: Homo sapiens, ZR-75-1, 168 h, 7 days; for Maximum Inhibition Rate on ZR-75-1 Cells: maximum value fitted by GraphPad Prism 8. On the procedure:
as §1, §2, §3, §4, §5, §6, §7, §8, §9

A further assay concerns MCF-7 Cells. The note with it: compound alone; for IC50: Homo sapiens, MCF7, 168 h, 7 days; for Maximum Inhibition Rate on MCF-7 Cells: maximum value fitted by GraphPad Prism 8. As for the experimental part: as §1, §2, §3, §4
(§10) 24 Hours after MCF-7, T47D, and CAMA-1 cells were plated, the compound was administered alone. For the compound of Formula (A): 20 nL of the compound prepared in step 2.3 a) + 20 nL of DMSO were added. For compound fulvestrant: 20 nL of the compound prepared in step 2.3 c) + 20 nL of DMSO were added.
24 Hours after MCF-7 cells were plated, the compound of Formula (A) was administered in combination with fulvestrant: 20 nL of the compound prepared in step 2.3 a) + 20 nL of the compounds prepared in step 2.3 c), e), and f). […]

For another assay, the system named is T47D Cells. The note with it: compound alone; for IC50: Homo sapiens, T47D, 168 h, 7 days; for Maximum Inhibition Rate on T47D Cells: maximum value fitted by GraphPad Prism 8. As for the experimental part:
as §1, §2, §3, §4, §10
24 Hours after T47D cells were plated, the compound of Formula (A) was administered in combination with fulvestrant: 20 nL of the compound prepared in step 2.3 a) + 20 nL of the compounds prepared in step 2.3 c), e), and g). […]

Regarding `CC(C)NC[C@@H](C(=O)N1CCN(c2ncnc3c2[C@H](C)CC(=O)N3)[C@H]2C[C@H]21)c1ccc(Cl)cc1` [The compound of Formula (A), (R)-4-((1S,6R)-5-((S)-2-(4-chlorophenyl)-3-(isopropylamino)propanoyl)-2,5-diazabicyclo[4.1.0]heptan-2-yl)-5-methyl-5,8-dihydropyrido[2,3-d]pyrimidin-7(6H)-one], in the assay with BT-474 Cells, the concentration for half-maximal inhibition (IC50) is 668 nM and the “Maximum Inhibition Rate on BT-474 Cells” value is given as 84.62%. In the assay with ZR-75-1 Cells, the IC50 was determined as 2170 nM and the “Maximum Inhibition Rate on ZR-75-1 Cells” value amounted to 92.45%. Moreover, in the assay with MCF-7 Cells, the half-maximal inhibitory concentration (IC50) is 759 nM and the “Maximum Inhibition Rate on MCF-7 Cells” value is recorded as 98.92%. In the assay with T47D Cells, the half-maximal inhibitory concentration (IC50) came to 358 nM and the “Maximum Inhibition Rate on T47D Cells” value amounted to 91.47%.

Take `C[C@]12CC[C@@H]3c4ccc(O)cc4C[C@@H](CCCCCCCCC[S+]([O-])CCCC(F)(F)C(F)(F)F)[C@H]3[C@@H]1CC[C@@H]2O` (stereo partly shown) [Fulvestrant, reference compound]: in the assay with BT-474 Cells, the half-inhibitory concentration (IC50) is > 1000 nM and the “Maximum Inhibition Rate on BT-474 Cells” value was found to be 43.33%. Moreover, in the assay with ZR-75-1 Cells, the IC50 is > 1000 nM and the “Maximum Inhibition Rate on ZR-75-1 Cells” value turned out to be 43.96%. For the same compound, in the assay on MCF-7 Cells, the IC50 was determined as 0.19 nM and the “Maximum Inhibition Rate on MCF-7 Cells” value came out at 54.67%. Moreover, in the assay with T47D Cells, the IC50 turned out to be 0.09 nM and the “Maximum Inhibition Rate on T47D Cells” value turned out to be 62.71%.

The IC50 is the concentration at which inhibition is half-maximal.
